Laboratory results published in the supplement of paper PMC10627819.

Legend:
S. pneumoniae D39V [1] = assay: fitness (endpoint OD595 vs no drug) (fraction); higher = more growth
Method in brief: (§1)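 Fitness was measured as bacterial growth in 384-well plates inoculated at OD595 0.01 (30 µl, or 55 µl for S. pneumoniae). Media were TSB, LB Lennox or CY, at 37 °C. OD595 was read every 30 min for 14 h and background-subtracted against the first reading. Fitness is OD595 at the transition into stationary phase divided by the robust mean of no-drug control wells, capped at 1.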

S. aureus DSM 20231 [2] = assay: as above
Method in brief: as §1

S. aureus Newman [3] = assay: as above
Method in brief: as §1

S. pneumoniae D39V [4] = assay: Bliss interaction score (quartile over a dose matrix) (fitness difference); higher = more antagonism (negative = synergy)
Method in brief: (§2)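 The Bliss score is observed fitness minus expected fitness, where the expected value is the product of single-drug fitness values inferred from combination data. Fitness is OD595 at entry into stationary phase normalised to the plate's robust no-drug mean and capped at 1. Scores are reported as quartiles spanning technical, biological and donor/recipient replicates.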

S. aureus DSM 20231 [5] = assay: as above
Method in brief: as §2

B. subtilis 168 = assay: as above
Method in brief: as §2

S. aureus Newman [6] = assay: as above
Method in brief: as §2
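Throughout, for Bliss interaction score (quartile over a dose matrix): first quartile when negative (synergy) and third quartile when positive (antagonism).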
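Throughout, for fitness (endpoint OD595 vs no drug): OD595 on entry to stationary phase over no-drug wells; at most 1.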

CC1(C)S[C@@H]2[C@H](NC(=O)[C@H](N)c3ccc(O)cc3)C(=O)N2[C@H]1C(=O)O [Amoxicillin] + CC1=C\[C@@H](O)CC(=O)Cc2nc(co2)C(=O)N2CCC=C2C(=O)O[C@H](C(C)C)[C@H](C)/C=C/C(=O)NC\C=C\1 [Virginiamycin M1]
one replicate
Settings | fitness
S. aureus DSM 20231 [2], first compound 0.0625 µg/mL, partner 0.5 µg/mL | 0.541
S. aureus DSM 20231 [2], first compound 0.0625 µg/mL, partner 1 µg/mL | 0.699
S. aureus DSM 20231 [2], first compound 0.125 µg/mL, partner 0.5 µg/mL | 0.444
S. aureus DSM 20231 [2], first compound 0.125 µg/mL, partner 1 µg/mL | 0.497
S. aureus DSM 20231 [2], first compound 0.25 µg/mL, partner 0.5 µg/mL | 0.0437
S. aureus DSM 20231 [2], first compound 0.25 µg/mL, partner 1 µg/mL | 0.108
S. aureus DSM 20231 [2], first compound 0.5 µg/mL, partner 0.0625 µg/mL | 0.0149
S. aureus DSM 20231 [2], first compound 0.5 µg/mL, partner 0.125 µg/mL | 0.0318
S. aureus DSM 20231 [2], first compound 0.5 µg/mL, partner 0.25 µg/mL | 0.0127
S. aureus Newman [3], first compound 0.125 µg/mL, partner 0.5 µg/mL | 0.81
S. aureus Newman [3], first compound 0.125 µg/mL, partner 1 µg/mL | ≥ 1
S. aureus Newman [3], first compound 0.125 µg/mL, partner 2 µg/mL | 0.845
S. aureus Newman [3], first compound 0.25 µg/mL, partner 0.5 µg/mL | 0.813
S. aureus Newman [3], first compound 0.25 µg/mL, partner 1 µg/mL | 0.865
S. aureus Newman [3], first compound 0.25 µg/mL, partner 2 µg/mL | 0.754
S. aureus Newman [3], first compound 0.5 µg/mL, partner 0.5 µg/mL | 0.74
S. aureus Newman [3], first compound 0.5 µg/mL, partner 1 µg/mL | 0.828
S. aureus Newman [3], first compound 0.5 µg/mL, partner 2 µg/mL | 0.732
S. pneumoniae D39V [1], first compound 0.0008 µg/mL, partner 0.15 µg/mL | 0.996
S. pneumoniae D39V [1], first compound 0.0008 µg/mL, partner 0.3 µg/mL | 0.892
S. pneumoniae D39V [1], first compound 0.0015 µg/mL, partner 0.15 µg/mL | 0.948
S. pneumoniae D39V [1], first compound 0.0015 µg/mL, partner 0.3 µg/mL | 0.9
S. pneumoniae D39V [1], first compound 0.003 µg/mL, partner 0.15 µg/mL | 0.951
S. pneumoniae D39V [1], first compound 0.003 µg/mL, partner 0.3 µg/mL | 0.906
S. pneumoniae D39V [1], first compound 0.006 µg/mL, partner 0.5 µg/mL | 0.447
S. pneumoniae D39V [1], first compound 0.006 µg/mL, partner 1 µg/mL | 0.474
S. pneumoniae D39V [1], first compound 0.006 µg/mL, partner 2 µg/mL | 0.46

Settings | fitness
S. aureus DSM 20231 [2], first compound 0.0625 µg/mL, partner 0.0625 µg/mL | 0.48
S. aureus DSM 20231 [2], first compound 0.0625 µg/mL, partner 0.125 µg/mL | 0.488
S. aureus DSM 20231 [2], first compound 0.0625 µg/mL, partner 0.25 µg/mL | 0.504
S. aureus DSM 20231 [2], first compound 0.125 µg/mL, partner 0.0625 µg/mL | 0.329
S. aureus DSM 20231 [2], first compound 0.25 µg/mL, partner 0.125 µg/mL | 0.0421
S. aureus DSM 20231 [2], first compound 0.25 µg/mL, partner 0.25 µg/mL | 0.0398
S. aureus Newman [3], first compound 0.0625 µg/mL, partner 0.0625 µg/mL | 0.935
S. aureus Newman [3], first compound 0.0625 µg/mL, partner 0.125 µg/mL | 0.893
S. aureus Newman [3], first compound 0.0625 µg/mL, partner 0.25 µg/mL | 0.906
S. aureus Newman [3], first compound 0.125 µg/mL, partner 0.0625 µg/mL | 0.883
S. aureus Newman [3], first compound 0.125 µg/mL, partner 0.125 µg/mL | 0.948
S. aureus Newman [3], first compound 0.125 µg/mL, partner 0.25 µg/mL | 0.945
S. aureus Newman [3], first compound 0.25 µg/mL, partner 0.0625 µg/mL | 0.867
S. aureus Newman [3], first compound 0.25 µg/mL, partner 0.125 µg/mL | 0.921
S. aureus Newman [3], first compound 0.25 µg/mL, partner 0.25 µg/mL | 0.886
S. pneumoniae D39V [1], first compound 0.0008 µg/mL, partner 0.5 µg/mL | 0.988
S. pneumoniae D39V [1], first compound 0.0008 µg/mL, partner 1 µg/mL | ≥ 1
S. pneumoniae D39V [1], first compound 0.0008 µg/mL, partner 2 µg/mL | 0.937
S. pneumoniae D39V [1], first compound 0.0015 µg/mL, partner 0.5 µg/mL | 0.978
S. pneumoniae D39V [1], first compound 0.0015 µg/mL, partner 1 µg/mL | 0.965
S. pneumoniae D39V [1], first compound 0.0015 µg/mL, partner 2 µg/mL | 0.95
S. pneumoniae D39V [1], first compound 0.003 µg/mL, partner 0.5 µg/mL | 0.926
S. pneumoniae D39V [1], first compound 0.003 µg/mL, partner 1 µg/mL | 0.956
S. pneumoniae D39V [1], first compound 0.003 µg/mL, partner 2 µg/mL | 0.914

Settings | Bliss interaction score
B. subtilis 168 | -0.0567
S. aureus DSM 20231 [5] | -0.0553
S. aureus Newman [6] | 0.0682
S. pneumoniae D39V [4] | -0.0459

CC1(C)S[C@@H]2[C@H](NC(=O)[C@H](N)c3ccc(O)cc3)C(=O)N2[C@H]1C(=O)O [Amoxicillin] + COc1ccc(C[C@H](N)C(=O)N[C@H]2[C@@H](O)[C@H](n3cnc4c(N(C)C)ncnc43)O[C@@H]2CO)cc1 [Puromycin]
Settings | fitness
S. aureus DSM 20231 [2], first compound 0.0625 µg/mL, partner 0.39 µg/mL | 0.53
S. aureus DSM 20231 [2], first compound 0.0625 µg/mL, partner 0.78 µg/mL | 0.566
S. aureus DSM 20231 [2], first compound 0.0625 µg/mL, partner 1.56 µg/mL | 0.517
S. aureus DSM 20231 [2], first compound 0.125 µg/mL, partner 0.39 µg/mL | 0.397
S. aureus DSM 20231 [2], first compound 0.125 µg/mL, partner 0.78 µg/mL | 0.448
S. aureus DSM 20231 [2], first compound 0.25 µg/mL, partner 0.39 µg/mL | 0.199
S. aureus DSM 20231 [2], first compound 0.25 µg/mL, partner 0.78 µg/mL | 0.133
S. aureus DSM 20231 [2], first compound 0.25 µg/mL, partner 1.56 µg/mL | 0.0396
S. aureus Newman [3], first compound 0.0625 µg/mL, partner 0.39 µg/mL | 0.874
S. aureus Newman [3], first compound 0.0625 µg/mL, partner 0.78 µg/mL | 0.879
S. aureus Newman [3], first compound 0.0625 µg/mL, partner 1.56 µg/mL | 0.9
S. aureus Newman [3], first compound 0.125 µg/mL, partner 0.39 µg/mL | 0.904
S. aureus Newman [3], first compound 0.125 µg/mL, partner 0.78 µg/mL | 0.882
S. aureus Newman [3], first compound 0.125 µg/mL, partner 1.56 µg/mL | 0.899
S. aureus Newman [3], first compound 0.25 µg/mL, partner 0.39 µg/mL | 0.813
S. pneumoniae D39V [1], first compound 0.0008 µg/mL, partner 1 µg/mL | 0.965
S. pneumoniae D39V [1], first compound 0.0008 µg/mL, partner 2 µg/mL | 0.953
S. pneumoniae D39V [1], first compound 0.0008 µg/mL, partner 4 µg/mL | 0.88
S. pneumoniae D39V [1], first compound 0.0015 µg/mL, partner 1 µg/mL | ≥ 1
S. pneumoniae D39V [1], first compound 0.0015 µg/mL, partner 2 µg/mL | ≥ 1
S. pneumoniae D39V [1], first compound 0.0015 µg/mL, partner 4 µg/mL | 0.954
S. pneumoniae D39V [1], first compound 0.003 µg/mL, partner 1 µg/mL | ≥ 1
S. pneumoniae D39V [1], first compound 0.003 µg/mL, partner 2 µg/mL | 0.962
S. pneumoniae D39V [1], first compound 0.003 µg/mL, partner 4 µg/mL | 0.891

one replicate
Settings | fitness
S. aureus DSM 20231 [2], first compound 0.0625 µg/mL, partner 3.12 µg/mL | 0.58
S. aureus DSM 20231 [2], first compound 0.0625 µg/mL, partner 6.24 µg/mL | 0.293
S. aureus DSM 20231 [2], first compound 0.125 µg/mL, partner 3.12 µg/mL | 0.417
S. aureus DSM 20231 [2], first compound 0.125 µg/mL, partner 6.24 µg/mL | 0.0695
S. aureus DSM 20231 [2], first compound 0.25 µg/mL, partner 3.12 µg/mL | 0.0126
S. aureus DSM 20231 [2], first compound 0.25 µg/mL, partner 6.24 µg/mL | 0.0079
S. aureus DSM 20231 [2], first compound 0.5 µg/mL, partner 0.39 µg/mL | 0.0239
S. aureus DSM 20231 [2], first compound 0.5 µg/mL, partner 0.78 µg/mL | 0.0124
S. aureus DSM 20231 [2], first compound 0.5 µg/mL, partner 1.56 µg/mL | 0.0417
S. pneumoniae D39V [1], first compound 0.006 µg/mL, partner 1 µg/mL | 0.617
S. pneumoniae D39V [1], first compound 0.006 µg/mL, partner 2 µg/mL | 0.685
S. pneumoniae D39V [1], first compound 0.006 µg/mL, partner 4 µg/mL | 0.612

Settings | Bliss interaction score
B. subtilis 168 | 0.0627
S. aureus DSM 20231 [5] | 0.0606
S. aureus Newman [6] | 0.0595
S. pneumoniae D39V [4] | 0.277
